For this experiment, the system named is L1210 leukemia ip in BDF1 mice, survival T/C. As to the kind of experiment: NCI In Vivo Anticancer Drug Screen. Data for tumor model L1210 Leukemia (intraperitoneal) in B6D2F1 (BDF1) mice. The following applies: endpoint: mean survival time, higher = longer survival. Summed up: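 Transplanted-tumor mice were given test agent; controls received vehicle only. Survival readings from the two groups were divided (treated over control).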

Setting [1] is: dose: 50.0 mg/kg/injection, schedule: Q01DX009 (ip), vehicle: saline with Tween-80.
The mark [2] stands for this setting: dose: 100.0 mg/kg/injection, schedule: Q01DX009 (ip), vehicle: saline with Tween-80.
The mark [3] stands for this setting: dose: 200.0 mg/kg/injection, schedule: Q01DX009 (ip), vehicle: saline with Tween-80.
Where [4] appears, read: dose: 100.0 mg/kg/injection, schedule: Q04DX003 (ip), vehicle: saline with Tween-80.
[5] abbreviates: dose: 200.0 mg/kg/injection, schedule: Q04DX003 (ip), vehicle: saline with Tween-80.
Setting [6] is: dose: 100.0 mg/kg/injection, schedule: Q01DX001 (ip), vehicle: saline.
[7] abbreviates: dose: 200.0 mg/kg/injection, schedule: Q01DX001 (ip), vehicle: saline.
Setting [8] is: dose: 400.0 mg/kg/injection, schedule: Q01DX001 (ip), vehicle: saline.
The mark [9] stands for this setting: dose: 100.0 mg/kg/injection, schedule: Q01DX009 (ip), vehicle: Klucel (hydroxypropylcellulose) (HPC).
The mark [10] stands for this setting: dose: 100.0 mg/kg/injection, schedule: Q04DX003 (ip), vehicle: Klucel (hydroxypropylcellulose) (HPC).
Where [11] appears, read: dose: 200.0 mg/kg/injection, schedule: Q01DX009 (ip), vehicle: Klucel (hydroxypropylcellulose) (HPC).
The mark [12] stands for this setting: dose: 200.0 mg/kg/injection, schedule: Q04DX003 (ip), vehicle: Klucel (hydroxypropylcellulose) (HPC).
The mark [13] stands for this setting: dose: 400.0 mg/kg/injection, schedule: Q04DX003 (ip), vehicle: Klucel (hydroxypropylcellulose) (HPC).
Where [14] appears, read: dose: 400.0 mg/kg/injection, schedule: Q01DX009 (ip), vehicle: Klucel (hydroxypropylcellulose) (HPC).

Toxic doses and inconclusive results are not listed.

In the case of `COc1cc2c(cc1OC)CN1CCc3cc(OC)c(OC)cc3C1C2` (stereo not given), the T/C by setting is: under setting [1], 93 % of control; (dose: 75.0 mg/kg/injection, schedule: Q01DX001 (ip), vehicle: saline) 100 % of control; under setting [2], 93 % of control; (dose: 150.0 mg/kg/injection, schedule: Q01DX001 (ip), vehicle: saline) 100 % of control; under setting [3], 93 % of control; (dose: 300.0 mg/kg/injection, schedule: Q01DX001 (ip), vehicle: saline) 101 % of control.

For the molecule `Cc1cc2[nH]c(=O)[nH]c2cc1C`, the T/C by setting is: under setting [4], 98 % of control; under setting [5], 88 % of control.

Consider `O=c1[nH]c2ccc(Br)cc2cc1Br`, for which the T/C was 97 % of control under setting [6], 97 % of control under setting [7] and 97 % of control under setting [8].

In the case of `C1CCC2C(C1)CCCC2C(C1CCCC2CCCCC21)C1CCCC2CCCCC21` (stereo not given), the T/C is 90 % of control (dose: 100.0 mg/kg/injection, schedule: Q01DX001 (ip), vehicle: saline with Tween-80); 90 % of control (dose: 200.0 mg/kg/injection, schedule: Q01DX001 (ip), vehicle: saline with Tween-80); 90 % of control (dose: 400.0 mg/kg/injection, schedule: Q01DX001 (ip), vehicle: saline with Tween-80).

For `CN(C)C(=NN=C(N(C)C)N(C)C)N(C)C`, the T/C is 102 % of control (dose: 12.5 mg/kg/injection, schedule: Q04DX003 (sc), vehicle: saline); 107 % of control (dose: 25.0 mg/kg/injection, schedule: Q04DX003 (sc), vehicle: saline); 100 % of control (dose: 50.0 mg/kg/injection, schedule: Q04DX003 (sc), vehicle: saline); 98 % of control (dose: 100.0 mg/kg/injection, schedule: Q04DX003 (sc), vehicle: saline).

With `CC(=O)N(Cl)c1ccc(Cl)cc1Cl`, the T/C was 100 % of control (dose: 100.0 mg/kg/injection, schedule: Q04DX002 (ip), vehicle: Klucel (hydroxypropylcellulose) (HPC)); 98 % of control (dose: 200.0 mg/kg/injection, schedule: Q04DX002 (ip), vehicle: Klucel (hydroxypropylcellulose) (HPC)); 91 % of control (dose: 400.0 mg/kg/injection, schedule: Q04DX002 (ip), vehicle: Klucel (hydroxypropylcellulose) (HPC)).

On to `O=C(CCl)N1c2ccccc2Oc2cc3ccccc3cc21`, for which the T/C reads like this: (dose: 100.0 mg/kg/injection, schedule: Q01DX009 (ip), vehicle: saline) 100 % of control; (dose: 100.0 mg/kg/injection, schedule: Q04DX003 (ip), vehicle: saline) 95 % of control; (dose: 200.0 mg/kg/injection, schedule: Q01DX009 (ip), vehicle: saline) 90 % of control; (dose: 200.0 mg/kg/injection, schedule: Q04DX003 (ip), vehicle: saline) 101 % of control; (dose: 400.0 mg/kg/injection, schedule: Q01DX009 (ip), vehicle: saline) 92 % of control; (dose: 400.0 mg/kg/injection, schedule: Q04DX003 (ip), vehicle: saline) 92 % of control.

For the molecule `COc1ccc(N=Cc2ccc(C=Nc3ccc(OC)cc3)cc2)cc1`, the T/C (dose: 25.0 mg/kg/injection, schedule: Q04DX003 (ip), vehicle: Klucel (hydroxypropylcellulose) (HPC)) is 96 % of control; the T/C (dose: 50.0 mg/kg/injection, schedule: Q01DX009 (ip), vehicle: Klucel (hydroxypropylcellulose) (HPC)) is 90 % of control; the T/C (dose: 50.0 mg/kg/injection, schedule: Q04DX003 (ip), vehicle: Klucel (hydroxypropylcellulose) (HPC)) is 98 % of control; the T/C under setting [9] was 97 % of control; the T/C under setting [10] was 96 % of control; the T/C under setting [11] was 88 % of control.

Take `CCOC(=O)CCN(CCC(=O)OCC)C1CC1c1ccccc1` (stereo not given): the T/C under setting [10] is 100 % of control, the T/C under setting [12] was 95 % of control and the T/C under setting [13] was 100 % of control.

For the molecule `COc1cccc(S(C)(=O)=O)c1`, the T/C runs as follows: (dose: 75.0 mg/kg/injection, schedule: Q01DX009 (ip), vehicle: saline) 105 % of control; (dose: 75.0 mg/kg/injection, schedule: Q04DX003 (ip), vehicle: saline) 101 % of control; (dose: 150.0 mg/kg/injection, schedule: Q01DX009 (ip), vehicle: saline) 97 % of control; (dose: 150.0 mg/kg/injection, schedule: Q04DX003 (ip), vehicle: saline) 101 % of control; (dose: 300.0 mg/kg/injection, schedule: Q01DX009 (ip), vehicle: saline) 92 % of control; (dose: 300.0 mg/kg/injection, schedule: Q04DX003 (ip), vehicle: saline) 100 % of control.

For the molecule `O=C(O)Cc1ccc2c3c(ccc([N+](=O)[O-])c13)CC2`, the T/C under setting [1] was 95 % of control; the T/C under setting [2] was 93 % of control; the T/C under setting [4] was 96 % of control; the T/C under setting [3] is 90 % of control; the T/C under setting [5] was 96 % of control.

As for `CCCCOc1ccc(C(=O)N/N=C\c2cc(OC)c(OC)c(OC)c2)cc1`, the T/C runs as follows: under setting [10], 94 % of control; under setting [12], 94 % of control; under setting [13], 91 % of control.

As to `CCOc1ccc(N=C=S)cc1`, the T/C reads like this: under setting [6], 93 % of control; under setting [7], 98 % of control; under setting [8], 102 % of control.

Take `COC(=O)CCc1c[nH]c2ccc(N(CCCl)CCCl)cc12`: the T/C (dose: 0.06 mg/kg/injection, schedule: Q01DX015 (ip), vehicle: carboxymethylcellulose (CMC)) is 104 % of control; the T/C (dose: 0.13 mg/kg/injection, schedule: Q01DX015 (ip), vehicle: carboxymethylcellulose (CMC)) was 105 % of control; the T/C (dose: 0.25 mg/kg/injection, schedule: Q01DX015 (ip), vehicle: carboxymethylcellulose (CMC)) is 110 % of control; the T/C (dose: 0.5 mg/kg/injection, schedule: Q01DX015 (ip), vehicle: carboxymethylcellulose (CMC)) is 120 % of control; the T/C (dose: 1.0 mg/kg/injection, schedule: Q01DX015 (ip), vehicle: carboxymethylcellulose (CMC)) was 100 % of control; the T/C (dose: 1.9 mg/kg/injection, schedule: Q01DX009 (ip), vehicle: other) was 118 % of control. The T/C is, setting by setting: (dose: 3.0 mg/kg/injection, schedule: Q01DX015 (ip), vehicle: carboxymethylcellulose (CMC)) 119 % of control; (dose: 3.8 mg/kg/injection, schedule: Q04DX003 (ip), vehicle: saline) 108 % of control; (dose: 7.5 mg/kg/injection, schedule: Q04DX003 (ip), vehicle: saline) 115 % of control; (dose: 15.0 mg/kg/injection, schedule: Q01DX009 (ip), vehicle: other) 123 % of control; (dose: 30.0 mg/kg/injection, schedule: Q04DX003 (ip), vehicle: saline) 177 % of control.

Consider `CCOc1ccc(-n2c(O)c(N=Nc3ccc(Cl)cc3)c(=O)n(-c3ccccc3)c2=S)cc1`, for which the T/C was 104 % of control (dose: 100.0 mg/kg/injection, schedule: Q01DX001 (ip), vehicle: Klucel (hydroxypropylcellulose) (HPC)); 105 % of control (dose: 200.0 mg/kg/injection, schedule: Q01DX001 (ip), vehicle: Klucel (hydroxypropylcellulose) (HPC)); 94 % of control (dose: 400.0 mg/kg/injection, schedule: Q01DX001 (ip), vehicle: Klucel (hydroxypropylcellulose) (HPC)).

With `Cc1cc(N(C)C)c([N+](=O)[O-])cc1C=O`, the T/C is 98 % of control under setting [9]; 100 % of control under setting [10]; 96 % of control under setting [11]; 94 % of control under setting [12]; 96 % of control under setting [14]; 94 % of control under setting [13].

Turning to `CCN(CC)CCOc1ccc(-c2nc3cc(Cl)ccc3s2)cc1`, the T/C was 95 % of control (dose: 15.0 mg/kg/injection, schedule: Q01DX015 (ip), vehicle: saline); 94 % of control (dose: 30.0 mg/kg/injection, schedule: Q01DX015 (ip), vehicle: saline); 94 % of control (dose: 60.0 mg/kg/injection, schedule: Q01DX015 (ip), vehicle: saline); 91 % of control (dose: 120.0 mg/kg/injection, schedule: Q01DX015 (ip), vehicle: saline).

On to `O=C(Nc1ccccc1C(=O)N/N=C/CCc1ccccc1)c1ccccc1Cl`, for which the T/C was 101 % of control under setting [9], 97 % of control under setting [11] and 92 % of control under setting [14].

The values are drawn from PubChem BioAssay AID248 (DTP/NCI, 2004).
